Test results as given in patent US20100137403A1, “METHOD FOR ENHANCING COGNITION OR INHIBITING COGNITIVE DECLINE” (priority 2008, published 2010).
“Also recorded” adds a separate entry of the source. Like-named read-outs stand apart in the source and are kept apart here.

Tests used:
mouse cerebellar neurons = conditions: cited from earlier work
mice = experiment: Lethality of phenylalkylamine Ca2+ channel blockers in mice; format: in vivo; conditions: 10 mg/kg i.v.
Text: […]. The doses administered for these studies were selected to reflect the previously characterized potency of each of the drugs on blocking L-type Ca^2+ channel function. […].

young adult mice = conditions: cited from earlier work
[1] = system: nucleus basalis magnocellularis lesioned rats; conditions: cited from earlier work
C57BL/6 mice [2] = conditions: general statement on the SAT test; cited from earlier work
NF-κB [3] = experiment: In vivo bio-photonic imaging of NF-κB luciferase reporter transgenic mice; set-up: species or system mouse; conditions: for NF-κB activation in brain (dorsal brain images): Example 3
NF-κB [4] = experiment: as above; set-up: species or system mouse; conditions: for NF-κB activation in the brain: Example 4
Procedure: The animal used to establish this criterion is preferably a laboratory animal, more preferably a rodent, illustratively a mouse. […] In this technique, a test compound, in this case a Ca^2+ channel blocker, is administered by intravenous (i.v.) injection to transgenic mice having a firefly luciferase reporter driven by one or more NF-κB response elements fused to the reporter (NF-κB::LUC mice). NF-κB expression, nuclear translocation and binding to the response elements in any anatomical or sub-anatomical region of a mouse results in activation of the luciferase reporter in that region. Activated luciferase, in presence of a luciferin substrate, emits light which can be detected and quantitated, and can be used in whole-body imaging to identify specific anatomical or sub-anatomical regions where the luciferase is activated as a result of NF-κB expression. Mice can be anesthetized and imaged at time intervals after administration of the test compound to reveal temporal as well as spatial distribution of NF-κB expression.
In vivo bio-photonic imaging was used to investigate temporal and spatial modulation of physiological processes following acute tiapamil administration to mice. For these studies we employed an NF-κB luciferase transgenic line that was constructed using three NF-κB response elements fused to a firefly luciferase reporter gene. The effect of tiapamil on NF-κB activation was monitored as modulation of detectable luciferase reporter activity, a surrogate for NF-κB activation and nuclear translocation with subsequent binding to the response elements of the reporter. Luciferase activity was detected by its ability to cleave luciferin, a luciferase substrate. Light emitted was detected and analyzed using a highly sensitive CCD imaging system.
For the present study, female NF-κB transgenic mice (5 per treatment) received tiapamil i.v. at 1 or 10 mg/kg in a saline vehicle, or vehicle control. At 2, 4 and 6 hours after administration, the animals were anesthetized and imaged. Visual and quantitative analysis was then performed based on counting photons of light emitted from specific anatomical regions. […] The data are depicted quantitatively in FIG. 1.

[5] = in vivo; cited from earlier work
C57BL/6 mice [6] = experiment: Spontaneous alternation task (SAT) test of short-term memory in T-maze; format: in vivo, mouse; conditions: for alternation (short-term memory) in healthy mice / alternation (short-term memory) in scopolamine-treated mice: 30 mg/kg i.p. 8 hours prior to the SAT; for alternation (short-term memory) in healthy mice: administered alone; for alternation (short-term memory) in scopolamine-treated mice: scopolamine 1 mg/kg i.p. 30 minutes prior
Sprague-Dawley rats = experiment: Novel object recognition (NOR) test of long-term memory; format: in vivo, rat
Text: The novel object recognition (NOR) paradigm is a rodent model of recognition learning memory retrieval and takes advantage of the spontaneous behavior of rodents to investigate a novel object by comparison with a familiar object (Ennaceur & Delacour (1988) Behav Brain Res. 31:47-59). NOR has been employed extensively to indicate potential cognition-enhancing properties of test compounds.
The objective of this study was to test cognition-enhancing properties of tiapamil using the NOR test of long-term memory in healthy male rats. Adult male Sprague-Dawley rats were used in this study. Animals were placed in the experimental rooms at postnatal day 80 and assigned unique identification numbers (tail marked). Pairs were housed in polycarbonate cages with filter tops and acclimated for 7 days prior to commencing any studies. Animals were maintained in a 12 hour light/dark cycle with room temperature maintained at 22±2° C. with relative humidity maintained at approximately 50%. Food and water were provided ad libitum. All animals were examined, handled, and weighed for two days prior to initiation of the study to assure adequate health and suitability and to minimize non-specific stress associated with manipulation. Each animal was randomly assigned across treatment groups (8 animals per group) and balanced by cage numbers. […]
Tiapamil (10 or 30 mg/kg) was dissolved in saline and administered i.p. 1 or 8 hours prior to training. […] The rats were assessed for cognitive ability in a test apparatus comprising an open-field arena placed in a sound-attenuated room under dimmed lighting. […] All tests were video-scored blind. […] This 10-minute training period, T1, was recorded for subsequent analysis if necessary. […] After 24 hours, each rat was placed again in the test arena for 10 minutes (T2) in presence of a copy of the familiar object and a novel object, and the time spent exploring both objects was recorded. […] The NOR index was measured as the ratio of time spent exploring the novel object over total time spent exploring both objects (familiar+novel), during retention session T2.

NF-κB [7] = experiment: Luciferase imaging of 1 mm coronal brain sections from NF-κB transgenic mice; format: in vivo, mouse; conditions: 1 and 10 mg/kg, 6-hour time point
Text: Evaluation of tiapamil in the NF-κB transgenic mouse line was repeated essentially as described in Example 1 and whole-body images were collected at the 6-hour time point. Brains were rapidly removed, chilled in ice-cold saline and sliced into 1 mm coronal sections. The sections were then placed onto glass slides, covered with luciferin solution (Luciferase Assay System substrate, Promega) and subsequently imaged in an IVIS 200 imaging system (Caliper Corp.) to evaluate effect of tiapamil on regional distribution of luciferase activity in the brain.

For `COc1ccc(CCN(C)CCCC(C#N)(c2ccc(OC)c(OC)c2)C(C)C)cc1OC` (centres unmarked) [verapamil], the genetically-inhibited neurite extension (mouse cerebellar neurons; mouse cerebellar neurons) is listed as “could restore”, the neuroprotection (mouse cerebellar neurons; normal neurons exposed to high concentrations of ethanol) is listed as “neuroprotective” and the “Deaths (n = 5)” value (mice) is listed as 5. For the same molecule, the linear maze acquisition (young adult mice; at the most effective retention dose) was “failed to enhance acquisition”, the linear maze retention (young adult mice; young adult mice) was “enhancement effects at three doses” and the “retention of passive avoidance learning” value (young adult mice; young adult mice) was “failed to facilitate retention”. For the same molecule, the “acquisition and performance aspects of active avoidance” value ([1]; 2.5 and 5 mg/kg) was “improved” and the “acquisition and performance aspects of active avoidance” value ([1]; lower (1 mg/kg) and higher (10 mg/kg) doses) was “ineffective”.

In the case of `CN1[C@@H]2C[C@@H](OC(=O)[C@H](CO)c3ccccc3)C[C@H]1[C@@H]1O[C@@H]12` [scopolamine], the spontaneous alternation (C57BL/6 mice [2]) is listed as “impaired”.

In the case of `COc1cc2c(cc1OC)C(=O)C(CC1CCN(Cc3ccccc3)CC1)C2` (centres unmarked) [donepezil], the spontaneous alternation (C57BL/6 mice [2]) is given as “enhanced”.

With gallopamil the “NF-κB activation in brain (dorsal brain images)” value (from here on “NF-κB activation in brain”) (NF-κB [3]; 0.5 mg/kg i.v., 2- and 4-hour time points) was “marginal effect”, the “NF-κB activation in brain” value (NF-κB [3]; 0.5 mg/kg i.v., 6-hour time point) was “more dramatic effect” and the “NF-κB activation in the brain” value (NF-κB [4]; 1 mg/kg i.v., 3 surviving animals, 1 mg/kg) was “induced NF-κB activation; also recorded: increased NF-κB expression in the brain”. The “NF-κB activation in the brain” value (NF-κB [4]; 10 mg/kg i.v., surviving animals, 2, 4, 6 hours) was “minor to no change” and the “efficacy on aspects of ischemic disease” value [5] was “ineffective”.

With `O=C(O)c1cc(/N=N/c2ccc(S(=O)(=O)Nc3ccccn3)cc2)ccc1O` [sulfasalazine] the “measureable NF-κB activity” value (NF-κB [3]; Example 5, co-administration of tiapamil and high-dose sulfasalazine) was “increased amount of measureable NF-κB activity”, the “measureable NF-κB activity” value (NF-κB [3]; Example 5, high-dose sulfasalazine alone) was “increased amount of measureable NF-κB activity” and the “effect on tiapamil-induced short-term memory enhancement” value (C57BL/6 mice [6]; sulfasalazine 3 mg/kg i.p. co-administered with tiapamil 30 mg/kg 8 hours prior to the SAT, healthy mice) was “loss of tiapamil's memory-enhancing effects”.

In the case of `COc1ccc(CCN(C)CCCC2(c3ccc(OC)c(OC)c3)S(=O)(=O)CCCS2(=O)=O)cc1OC` [tiapamil, N-(3,4-dimethoxyphenethyl)-2-(3,4-dimethoxyphenyl)-N-methyl-m-dithian-2-propylamin-1,1,3,3-tetroxide], the “NF-κB activation in brain” value (NF-κB [3]; 10 mg/kg i.v., 2, 4 and 6 hours) is reported as “robust effect”, the “NF-κB signaling in the brain (light emission from head region, dorsal view)” value (NF-κB [3]; Example 5, i.p., 2, 4, 6 and 8 hours) is reported as “enhanced” and the “NOR index 24 hours after training” value (Sprague-Dawley rats; 10 mg/kg i.p., 1 hour) is reported as “significantly increased NOR index”. The “NOR index 24 hours after training” value (Sprague-Dawley rats; 10 mg/kg i.p., 8 hours) was “significantly increased NOR index”, the “NOR index 24 hours after training” value (Sprague-Dawley rats; 30 mg/kg i.p.) was “not effective” and the “alternation (short-term memory) in healthy mice” value (C57BL/6 mice [6]) was “enhances short-term memory”. The “alternation (short-term memory) in healthy mice” value (C57BL/6 mice [6]; listed as Tiapamil) was “increased the number of alternation events”, the “alternation (short-term memory) in scopolamine-treated mice” value (C57BL/6 mice [6]) was “reverses memory deficits” and the “alternation (short-term memory) in scopolamine-treated mice” value (C57BL/6 mice [6]; listed as Tiapamil) was “prevented scopolamine-induced impairment”. The “NF-κB activation in the brain” value (NF-κB [4]; 10 mg/kg i.v., surviving animals, 2, 4, 6 hours, 10 mg/kg) was “robust effect; also recorded: substantially increased”, the “NF-κB activation in peripheral anatomical regions” value (NF-κB [4]; i.v. 1 or 10 mg/kg) was “no effect” and the “NF-κB expression in the head” value (NF-κB [4]; i.v. 1 or 10 mg/kg, 4 and 6 hours after treatment) was “dose-dependent increase”. For the same molecule, the “efficacy on aspects of ischemic disease” value [5] was “ineffective” and the “luciferase expression in all regions of the brain evaluated” value (NF-κB [7]) was “dramatic effect”.
